Measured values from PubChem BioAssay AID1259411 (Chemical Carcinogenesis Research Information System (CCRIS), 2018).
Active and inactive are the calls of the source. The rule behind the calls is not given here.

Test system: rodent carcinogenicity bioassays, tumor incidence
Experiment: CCRIS carcinogenicity studies
Outline: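 Archive of carcinogenicity, mutagenicity, tumor promotion and tumor inhibition results drawn from journals, NCI reports and other sources, expert-reviewed; covers 1985-2011 and is no longer updated.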

Cc1cn([C@H]2C[C@H](N=[N+]=[N-])[C@@H](CO)O2)c(=O)[nH]c1=O
carcinogen call (Species: MOUSE, Strain/Sex: B6C3F1/FEMALE, Route: GAVAGE, Dose: 0, 30, 60, 120 MG/KG BW IN 0.5% METHYLCELLULOSE ADMINISTERED IN TWO EQUAL DOSES DAILY 5 D/WK FOR 105 WK (STUDY DURATION:, Dose: 0, 30, 60, 120 MG/KG BW IN 0.5% METHYLCELLULOSE ADMINISTERED IN TWO EQUAL DOSES DAILY 5 D/WK FOR 105 WK (STUDY DURATION:, Tumor Site: Type of Lesion: VAGINA: SQUAMOUS CELL CARCINOMA, SQUAMOUS CELL PAPILLOMA OR CARCINOMA): active; positive | carcinogen call (Species: MOUSE, Strain/Sex: B6C3F1/MALE, Route: GAVAGE, Dose: 0, 30, 60, 120 MG/KG BW IN 0.5% METHYLCELLULOSE ADMINISTERED IN TWO EQUAL DOSES DAILY 5 D/WK FOR 105 WK (STUDY DURATION:, Dose: 0, 30, 60, 120 MG/KG BW IN 0.5% METHYLCELLULOSE ADMINISTERED IN TWO EQUAL DOSES DAILY 5 D/WK FOR 105 WK (STUDY DURATION:, Tumor Site: Type of Lesion: KIDNEY: RENAL TUBULE ADENOMA, RENAL TUBULE CARCINOMA, HARDERIAN GLAND: ADENOMA, ADENOMA OR CARCINOMA): equivocal | carcinogen call (Species: MOUSE, Strain/Sex: CD-1/FEMALE, Route: GAVAGE, Dose: 0, 30, 60, 120 MG/KG/D ON DAY 91 OF STUDY DOSES LOWERED TO 20, 30, 40 MG/KG (STUDY DURATION: 22 MO), Dose: 0, 30, 60, 120 MG/KG/D ON DAY 91 OF STUDY DOSES LOWERED TO 20, 30, 40 MG/KG (STUDY DURATION: 22 MO), Tumor Site: Type of Lesion: VAGINA: SQUAMOUS CELL CARCINOMA): active; positive | carcinogen call (Species: MOUSE, Strain/Sex: CD-1/FEMALE, Route: INTRAVAGINAL, Dose: 0, 5, 20 MG/ML IN 0.9% SALINE ADMINISTERED AT 0.2 ML 2/D (STUDY DURATION: 24 MO), Dose: 0, 5, 20 MG/ML IN 0.9% SALINE ADMINISTERED AT 0.2 ML 2/D (STUDY DURATION: 24 MO), Tumor Site: Type of Lesion: VAGINA: SQUAMOUS CELL CARCINOMA): active; positive | carcinogen call (Species: MOUSE, Strain/Sex: CD-1/MALE, Route: GAVAGE, Dose: 0, 30, 60, 120 MG/KG/D ON DAY 91 OF STUDY DOSES LOWERED TO 20, 30, 40 MG/KG/D (STUDY DURATION: 19 MO), Dose: 0, 30, 60, 120 MG/KG/D ON DAY 91 OF STUDY DOSES LOWERED TO 20, 30, 40 MG/KG/D (STUDY DURATION: 19 MO)): inactive; negative | carcinogen call (Species: Mouse, Strain/Sex: Swiss (CD-1)/Female F1 Generation, Route: In utero, Dose: 0, 50, 100, 200, 300 mg/kg by gavage to F0 generation females 7 d/wk for 29-39 d (delivery day): females mated with unex, Dose: 0, 50, 100, 200, 300 mg/kg by gavage to F0 generation females 7 d/wk for 29-39 d (delivery day): females mated with unex): inactive; negative; decreased litter size and fertility rates at two highest doses | carcinogen call (Species: Mouse, Strain/Sex: Swiss (CD-1)/Male F1 Generation, Route: In utero, Dose: 0, 50, 100, 200, 300 mg/kg by gavage to F0 generation females 7 d/wk for 29-39 d (delivery day): females mated with unex, Dose: 0, 50, 100, 200, 300 mg/kg by gavage to F0 generation females 7 d/wk for 29-39 d (delivery day): females mated with unex, Tumor Site: Type of Lesion: Lung, Alveolar/Bronchiolar Carcinoma (5/50, 11/50, 6/50, 11/37, 8/32), Alveolar/Bronchiolar adenoma or carcinoma (14/50,, Tumor Site: Type of Lesion: Lung, Alveolar/Bronchiolar Carcinoma (5/50, 11/50, 6/50, 11/37, 8/32), Alveolar/Bronchiolar adenoma or carcinoma (14/50): active; positive; decreased litter size and fertility rates at two highest doses | carcinogen call (Species: RAT, Strain/Sex: STRAIN-CD/MALE, Route: GAVAGE, Dose: 0, 80, 220, 600 MG/KG/D, HIGH DOSE LOWERED TO 450 MG/KG THEN 300 MG/KG ON DAYS 91 AND 278, RESPECTIVELY (STUDY DURATION:, Dose: 0, 80, 220, 600 MG/KG/D, HIGH DOSE LOWERED TO 450 MG/KG THEN 300 MG/KG ON DAYS 91 AND 278, RESPECTIVELY (STUDY DURATION:): inactive; negative

CCN(CC)CCNc1ccc(CO)c2sc3ccccc3c(=O)c12
carcinogen call (Species: MOUSE, Route: INTRAMUSCULAR, Tumor Site: Type of Lesion: LIVER): active; positive

O=NN(CCCC(F)(F)F)CCCC(F)(F)F
carcinogen call (Species: RAT, Strain/Sex: SPRAGUE-DAWLEY/MALE,FEMALE, Route: GAVAGE, Dose: 1.5, 7.5% IN VEGETABLE OIL 2/WK FOR UP TO 32 WK, Tumor Site: Type of Lesion: LIVER: HEPATOCELLULAR CARCINOMA, LUNG: SQUAMOUS CELL CARCINOMA, ADENOCARCINOMA): active; positive

CCCCCCCC/C=C\CCCCCCCC(=O)O
carcinogen call (Species: MOUSE, Strain/Sex: B6C3F1/FEMALE, Route: ORAL, Dose: 0, 0.25, 1.0% IN DRINKING WATER FOR 96 WK (STUDY DURATION: 104 WK), Dose: 0, 0.25, 1.0% IN DRINKING WATER FOR 96 WK (STUDY DURATION: 104 WK)): inactive; negative | carcinogen call (Species: MOUSE, Strain/Sex: B6C3F1/MALE, Route: ORAL, Dose: 0, 0.25, 1.0% IN DRINKING WATER FOR 96 WK (STUDY DURATION: 104 WK), Dose: 0, 0.25, 1.0% IN DRINKING WATER FOR 96 WK (STUDY DURATION: 104 WK)): inactive; negative | carcinogen call (Species: RAT, Strain/Sex: F344/FEMALE, Route: ORAL, Dose: 0, 2.5, 5% IN DRINKING WATER FOR 108 WK (STUDY DURATION: 2 YR), Dose: 0, 2.5, 5% IN DRINKING WATER FOR 108 WK (STUDY DURATION: 2 YR)): inactive; negative | carcinogen call (Species: RAT, Strain/Sex: F344/MALE, Route: ORAL, Dose: 0, 2.5, 5% IN DRINKING WATER FOR 108 WK (STUDY DURATION: 2 YR), Dose: 0, 2.5, 5% IN DRINKING WATER FOR 108 WK (STUDY DURATION: 2 YR)): inactive; negative

c1ccc2c(c1)ccc1cc3ccc4c(c3cc12)CCCC4
carcinogen call (Species: MOUSE, Strain/Sex: SWISS/FEMALE, Route: DERMAL, Dose: 0, 37 UG IN ACETONE (0.2%) 2/WK FOR 70 WK FOR A TOTAL DOSE OF 0, 5.2 MG (STUDY DURATION: 100 WK), Dose: 0, 37 UG IN ACETONE (0.2%) 2/WK FOR 70 WK FOR A TOTAL DOSE OF 0, 5.2 MG (STUDY DURATION: 100 WK), Tumor Site: Type of Lesion: SKIN: CARCINOMA, SKIN: PAPILLOMA): active; positive

NC(Cc1cnc[nH]1)C(=O)O (stereo not drawn)
carcinogen call (Species: RAT, Strain/Sex: F344/FEMALE, Route: ORAL, Dose: 0, 1.25, 2.5% IN DIET FOR 104 WK (STUDY DURATION: 107 WK), Dose: 0, 1.25, 2.5% IN DIET FOR 104 WK (STUDY DURATION: 107 WK)): inactive; negative | carcinogen call (Species: RAT, Strain/Sex: F344/MALE, Route: ORAL, Dose: 0, 1.25, 2.5% IN DIET FOR 104 WK (STUDY DURATION: 107 WK), Dose: 0, 1.25, 2.5% IN DIET FOR 104 WK (STUDY DURATION: 107 WK)): inactive; negative

O[C@H]1C=Cc2ccc3cc4ccccc4nc3c2[C@@H]1O
carcinogen call (Species: MOUSE, Strain/Sex: SWISS/FEMALE, Route: INTRAPERITONEAL, Dose: 0, 1.05 UMOL GIVEN AS 150 NMOL IN 5 µL DMSO WITHIN 24 HR OF BIRTH, 300 NMOL IN 10 µL DMSO ON D 8 OF LIFE, AND 600 NMOL I): inactive; negative | carcinogen call (Species: MOUSE, Strain/Sex: SWISS/MALE, Route: INTRAPERITONEAL, Dose: 0, 1.05 UMOL GIVEN AS 150 NMOL IN 5 µL DMSO WITHIN 24 HR OF BIRTH, 300 NMOL IN 10 µL DMSO ON D 8 OF LIFE, AND 600 NMOL I): inactive; negative

COc1ccc(O)cc1
carcinogen call (Species: RAT, Strain/Sex: F344/FEMALE, Route: ORAL, Dose: 0, 2% IN DIET FOR 104 WK (STUDY DURATION: 104 WK), Tumor Site: Type of Lesion: FORESTOMACH: PAPILLOMA, SQUAMOUS CELL CARCINOMA): active; positive | carcinogen call (Species: RAT, Strain/Sex: F344/MALE, Route: ORAL, Dose: 0, 0.4% IN DIET FOR DURATION OF STUDY (STUDY DURATION: 104 WK)): inactive; negative | carcinogen call (Species: RAT, Strain/Sex: F344/MALE, Route: ORAL, Dose: 0, 2% IN DIET FOR 104 WK (STUDY DURATION: 104 WK), Tumor Site: Type of Lesion: FORESTOMACH: PAPILLOMA, SQUAMOUS CELL CARCINOMA): active; positive

Cc1cccc(C)c1NC1=NCCCS1
carcinogen call (Species: RAT, Strain/Sex: F344/MALE, Route: ORAL, Dose: 0, 1,000 PPM IN FEED FOR 52 WK (STUDY DURATION: 52 WK), Tumor Site: Type of Lesion: THYROID: ADENOMA): active; positive
